Experimental data published in patent US20030133962A1, “Pest control agent/pf 1022-221” (priority 1999, published 2003).

Experiments:
silkworms = details: known from literature (Kanaoka et al. 1979; JP 05 271 013); cited from earlier work
[1] = test system: larvae of the mustard beetle (Phaedon cochleariae); assay: Phaedon larvae test; assay type: in vivo; details: active compound concentration 1000 ppm; dipped cabbage leaves (Brassica oleracea)
Procedure: (§1) Solvent: 3 parts by weight of dimethylformamide
(§2) Emulsifier: 1 part by weight of alkylaryl polyglycol ether
(§3) To produce a suitable preparation of active compound, 1 part by weight of active compound is mixed with the stated amounts of solvent and emulsifier, and the concentrate is diluted with emulsifier-containing water to the desired concentration.
Cabbage leaves (Brassica oleracea) are treated by being dipped into the preparation of active compound of the desired concentration and populated with larvae of the mustard beetle (Phaedon cochleariae) while the leaves are still moist.
After the desired period of time, the kill in % is determined. 100% means that all beetle larvae have been killed; 0% means that none of the beetle larvae have been killed.

[2] = test system: caterpillars of the diamond back moth (Plutella xylostella); assay: Plutella test/symptomatology study; assay type: in vivo; details: 10 μg/larva; 1 μl acetone solution administered to caterpillars
Procedure: Plutella test/symptomatology study
To prepare an advantgeous preparation of active compound, 10 mg of active compound are mixed with 1 ml of solvent.
1 μl of the solution prepared in this manner is administered to caterpillars of the diamond back moth (Plutella xylostella).
After the desired period of time, the kill in % is determined 100% means that all caterpillars have been killed; 0% means that none of the caterpillars have been killed.

[3] = test system: caterpillars of the army worm (Spodoptera frugiperda); assay: Spodoptera frugiperda test; assay type: in vivo; details: active compound concentration 1000 ppm; dipped cabbage leaves (Brassica oleracea)
Procedure: Spodoptera frugiperda test
Solvent: 31 parts by weight of acetone
as §2, §3
Cabbage leaves (Brassica oleracea) are treated by being dipped into the preparation of active compound of the desired concentration and populated with caterpillars of the army worm (Spodoptera frugiperda) while the leaves are still moist.
After the desired period of time, the kill in % is determined. 100% means that all caterpillars have been killed; 0% means that none of the caterpillars have been killed.

Meloidogyne incognita = assay: Meloidogyne test; assay type: in vivo; details: active compound concentration 20 ppm; sand, lettuce seeds
Procedure: as §1, §2
To produce a suitable preparation of active compound, 1 part by weight of active compound is mixed with the stated amounts of solvent and emulsifier, and the concentrate is diluted with water to the desired concentration.
Vessels are filled with sand, a solution of the active compound, Meloidogyne incognita-egg larvae suspension and lettuce seeds. The lettuice seeds germinate, and the small plants develop. On the roots, galls are formed.
After the desired period of time, the nematicidal action is determined in % by the formation of galls. 100% means that no galls have been found; 0% means that the number of galls on the treated plants corresponds to that of the untreated control.

Compound	insecticidal activity against silkworms (silkworms)	kill rate [1] [%]	kill rate [2] [%]	kill rate [3] [%]	nematicidal action (effect) by the formation of galls (Meloidogyne incognita) [%]
CC(C)C[C@H]1C(=O)O[C@H](Cc2ccccc2)C(=O)N(C)[C@@H](CC(C)C)C(=O)O[C@H](C)C(=O)N(C)[C@@H](CC(C)C)C(=O)O[C@H](Cc2ccccc2)C(=O)N(C)[C@@H](CC(C)C)C(=O)O[C@H](C)C(=O)N1C [PF1022A]	insecticidal activity				
CC(C)C[C@H]1C(=O)O[C@H](Cc2ccc(N3CCOCC3)cc2)C(=O)N(C)[C@@H](CC(C)C)C(=O)O[C@H](C)C(=O)N(C)[C@@H](CC(C)C)C(=O)O[C@H](Cc2ccc(N3CCOCC3)cc2)C(=O)N(C)[C@@H](CC(C)C)C(=O)O[C@H](C)C(=O)N1C [compound of the formula (I)]		100	100	100	98
CC(C)C[C@H]1C(=O)O[C@H](C(C)C)C(=O)N(C)[C@@H](CC(C)C)C(=O)O[C@H](C(C)C)C(=O)N(C)[C@@H](CC(C)C)C(=O)O[C@H](C(C)C)C(=O)N(C)[C@@H](CC(C)C)C(=O)O[C@H](C(C)C)C(=O)N1C [bassianolide]	insecticidal activity				
